Measured values from ChEMBL document CHEMBL1201862, “PubChem BioAssay data set” (2004).
Active and inactive are the calls of the source. Rule as the data show it, for most assays here: actives have a measured IC50 and inactives only a lower limit.

How the values were obtained:
Type in all cases: functional
[1] = molecular target: T1, Sentrin-specific protease 6 (Homo sapiens, UniProt Q9GZR1);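 also: Luminescence-based dose-response confirmatory assay of SENP6 inhibition, following up an ultra-high-throughput screen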
T1 sequence (Q9GZR1 whole entry): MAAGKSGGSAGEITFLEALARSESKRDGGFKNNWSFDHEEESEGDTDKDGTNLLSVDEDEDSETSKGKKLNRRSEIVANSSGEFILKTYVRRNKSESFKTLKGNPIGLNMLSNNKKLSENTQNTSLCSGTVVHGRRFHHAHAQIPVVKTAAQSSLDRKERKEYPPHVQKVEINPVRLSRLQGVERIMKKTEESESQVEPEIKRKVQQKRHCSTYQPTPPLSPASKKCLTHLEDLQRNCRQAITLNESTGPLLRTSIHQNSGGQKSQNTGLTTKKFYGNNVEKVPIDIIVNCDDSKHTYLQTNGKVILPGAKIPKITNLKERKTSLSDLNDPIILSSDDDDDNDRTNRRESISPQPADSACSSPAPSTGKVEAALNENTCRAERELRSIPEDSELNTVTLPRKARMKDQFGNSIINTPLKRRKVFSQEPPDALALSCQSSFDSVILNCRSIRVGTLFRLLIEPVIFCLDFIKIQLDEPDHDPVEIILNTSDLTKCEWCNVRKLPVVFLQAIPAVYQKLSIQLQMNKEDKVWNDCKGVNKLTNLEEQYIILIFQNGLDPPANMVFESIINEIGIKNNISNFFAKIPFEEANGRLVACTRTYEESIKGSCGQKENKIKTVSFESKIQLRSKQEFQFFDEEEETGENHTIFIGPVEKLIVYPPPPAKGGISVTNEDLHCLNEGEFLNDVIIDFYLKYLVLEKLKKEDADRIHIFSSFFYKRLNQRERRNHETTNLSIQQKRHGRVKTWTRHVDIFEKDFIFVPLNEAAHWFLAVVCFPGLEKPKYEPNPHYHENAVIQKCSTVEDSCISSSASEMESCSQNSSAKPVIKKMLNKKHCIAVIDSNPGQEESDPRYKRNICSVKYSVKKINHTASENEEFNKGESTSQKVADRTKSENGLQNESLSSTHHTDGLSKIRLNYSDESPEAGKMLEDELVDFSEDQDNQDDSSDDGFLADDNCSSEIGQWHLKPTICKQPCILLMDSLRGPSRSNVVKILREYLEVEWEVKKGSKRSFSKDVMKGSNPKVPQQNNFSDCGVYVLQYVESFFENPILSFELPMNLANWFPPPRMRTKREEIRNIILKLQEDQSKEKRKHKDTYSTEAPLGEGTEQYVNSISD

[2] = molecular target: T2, Caspase-3 (Homo sapiens, UniProt P42574);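 also: Dose-response selectivity test against caspase-3 for candidate inhibitors of sentrin-specific proteases (SENPs)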
T2 sequence (P42574 whole entry): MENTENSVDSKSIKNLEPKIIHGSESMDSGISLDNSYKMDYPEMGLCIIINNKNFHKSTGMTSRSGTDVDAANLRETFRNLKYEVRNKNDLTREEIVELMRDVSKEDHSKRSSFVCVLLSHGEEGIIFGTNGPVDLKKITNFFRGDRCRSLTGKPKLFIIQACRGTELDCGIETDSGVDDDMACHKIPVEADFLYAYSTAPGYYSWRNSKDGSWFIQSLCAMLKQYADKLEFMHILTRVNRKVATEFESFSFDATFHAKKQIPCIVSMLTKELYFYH

[3] = molecular target: T3, Replicative DNA helicase DnaB (Mycobacterium tuberculosis, UniProt P9WMR3); assay: DnaB intein splicing inhibitors, dose response, biochemical, cell-free fluorescence (AID 449749)
T3 sequence (P9WMR3 whole entry): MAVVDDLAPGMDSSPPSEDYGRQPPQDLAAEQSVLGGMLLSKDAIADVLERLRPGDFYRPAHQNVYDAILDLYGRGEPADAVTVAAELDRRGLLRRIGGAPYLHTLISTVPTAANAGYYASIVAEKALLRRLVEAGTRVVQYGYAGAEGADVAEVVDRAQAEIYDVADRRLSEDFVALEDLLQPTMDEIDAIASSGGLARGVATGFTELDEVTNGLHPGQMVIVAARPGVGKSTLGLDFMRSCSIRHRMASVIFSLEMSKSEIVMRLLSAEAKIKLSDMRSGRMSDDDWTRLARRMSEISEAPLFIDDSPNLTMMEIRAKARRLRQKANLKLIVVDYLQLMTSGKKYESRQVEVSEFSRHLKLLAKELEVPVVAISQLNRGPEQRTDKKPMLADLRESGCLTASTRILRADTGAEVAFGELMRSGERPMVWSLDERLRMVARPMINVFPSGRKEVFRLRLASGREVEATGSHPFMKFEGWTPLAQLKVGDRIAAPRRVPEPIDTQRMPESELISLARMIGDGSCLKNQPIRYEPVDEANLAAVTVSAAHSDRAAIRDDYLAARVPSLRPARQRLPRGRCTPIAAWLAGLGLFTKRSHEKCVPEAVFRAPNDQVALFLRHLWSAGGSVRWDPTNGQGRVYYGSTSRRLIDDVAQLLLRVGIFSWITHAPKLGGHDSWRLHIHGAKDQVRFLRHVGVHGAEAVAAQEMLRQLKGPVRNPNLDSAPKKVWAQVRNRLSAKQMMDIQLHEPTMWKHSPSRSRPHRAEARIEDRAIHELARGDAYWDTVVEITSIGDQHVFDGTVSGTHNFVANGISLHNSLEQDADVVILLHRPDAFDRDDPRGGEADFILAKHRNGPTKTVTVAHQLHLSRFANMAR

COc1ccc(NC(=S)Nc2ccc3nsnc3c2)cc1
IC50 [1]: 2.3 µM (active) | IC50 [2]: 7.54 µM (active) | AC50 [3]: > 120 µM (inactive)

CC(C)(C)c1cc[n+](C2=C([N-]S(=O)(=O)c3ccccc3)C(=O)c3ccccc3C2=O)cc1
IC50 [1]: 8.45 µM (active) | IC50 [2]: 76.7 µM (active) | AC50 [3]: 9.28 µM (active)

O=C1C(=O)c2ccccc2C(O)=C1CCCCl
IC50 [1]: 7.23 µM (active) | IC50 [2]: 37.8 µM (active) | AC50 [3]: 6.36 µM (active)

O=C1C=C(Nc2ccccc2C(=O)O)c2ccccc2C1=O
IC50 [1]: 2 µM (active) | IC50 [2]: 4.8 µM (active) | AC50 [3]: 2.21 µM (active)
